Results from patent US8647845B2, “Method for producing sugar” (Asahi Group Holdings, Ltd., priority 2008, dated 2014).

Target: T1, sucrase (Saccharomyces cerevisiae, UniProt P00724)
T1 construct: S. cervisiae (Taiken 396 strain) which is a general yeast having sucrase; endogenous in cells; host or cells: Saccharomyces cerevisiae Taiken 396 strain (live yeast in sugarcane-pressed juice)
T1 sequence (P00724 20-532): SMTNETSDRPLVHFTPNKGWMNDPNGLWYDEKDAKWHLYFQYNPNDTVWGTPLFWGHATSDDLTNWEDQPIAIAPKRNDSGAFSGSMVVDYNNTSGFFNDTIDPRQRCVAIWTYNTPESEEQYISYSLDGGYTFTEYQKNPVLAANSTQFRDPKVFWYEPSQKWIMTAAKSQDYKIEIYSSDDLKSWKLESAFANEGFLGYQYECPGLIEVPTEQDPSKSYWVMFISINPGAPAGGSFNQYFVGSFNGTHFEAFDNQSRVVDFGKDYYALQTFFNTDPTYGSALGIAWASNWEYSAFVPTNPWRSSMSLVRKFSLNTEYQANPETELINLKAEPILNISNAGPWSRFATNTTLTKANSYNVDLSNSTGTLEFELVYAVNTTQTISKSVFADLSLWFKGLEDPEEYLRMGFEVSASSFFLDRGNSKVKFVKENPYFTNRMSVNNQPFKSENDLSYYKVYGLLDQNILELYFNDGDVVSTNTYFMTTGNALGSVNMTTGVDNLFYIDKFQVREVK
Experiment: Fermentation test on sugarcane-pressed juice using sucrase inhibitor
Assay type: cell-based, S. cervisiae (Taiken 396 strain)
Conditions: 60 mM inhibitor
Description: S. cervisiae ([…] 396 strain) which is a general yeast having sucrase was planted in a sugarcane-pressed juice. Methyl-α-D-glucopyranoside serving as a sucrase inhibitor was added thereto at a concentration 60 mM. A fermentation test was conducted to examine the changes in the concentrations of sucrose, invert sugars, and ethanol over time. The fungal strain used for fermentation had been pre-precultured by shaking in 10 mL of a YM medium at 30° C. for 24 hours, and then further precultured by shaking in 500 mL of a YPD medium at 30° C. for 12 hours. The yeast was collected from the precultured medium by centrifugation. 100 mL of the pressed juice (in the pressed juice, the sucrose concentration was 10.0%, and the invert sugar concentration was 3.0%) and 60 mM of methyl-α-D-glucopyranoside were placed in a 300-mL Erlenmeyer flask with a fermentation lock. The yeast collected from the precultured medium by centrifugation was added into the flask for fermentation. The fermentation was carried out by shaking at 30° C. at 120 rpm.

[1] = 6 hours after the fermentation was started

sucrose ratio of the fermented liquid (8 hours after the fermentation was started): 94.0%
sucrose decomposition speed (sugarcane-pressed juice (sucrose 10.0%, invert sugar 3.0%), 30° C., compared with no inhibitor): made slow
SMILES: CO[C@H]1O[C@H](CO)[C@@H](O)[C@H](O)[C@H]1O [methyl-α-D-glucopyranoside]
invert sugars converted into ethanol [1]: all the invert sugars were converted into ethanol
sucrose remaining [1]: approximately half of the sucrose remained
